Key:
Type in all cases: in vivo
[1] = tested on: Myzus persicae (Green peach aphid); experiment: Example B4: Activity against Myzus persicae, feeding/contact activity on sunflower leaf discs; details: foliar, 144 h, application rate 200 ppm, aphid population of mixed ages, assessed 6 days after infestation
Method: Example B4: Activity against Myzus persicae (Green peach aphid) Feeding/Contact activity Sunflower leaf discs were placed onto agar in a 24-well microtiter plate and sprayed with aqueous test solutions prepared from 10′000 ppm DMSO stock solutions. After drying, the leaf discs were infested with an aphid population of mixed ages. The samples were assessed for mortality 6 days after infestation.

[2] = tested on: Diabrotica Balteata (Corn Root Worm); experiment: Example B2: Activity against Diabrotica balteata, sprayed maize sprouts on agar; details: 96 h, application rate 200 ppm, L2 larvae, assessed 4 days after infestation, read-out: effect in at least one of the two categories (mortality or growth inhibition)
Method: Example B2: Activity Against Diabrotica Balteata (Corn Root Worm)
Maize sprouts placed onto an agar layer in 24-well microtiter plates were treated with aqueous test solutions prepared from 10′000 ppm DMSO stock solutions by spraying. After drying, the plates were infested with L2 larvae (6 to 10 per well). The samples were assessed for mortality and growth inhibition in comparison to untreated samples 4 days after infestation.

[3] = tested on: Spodoptera littoralis (Egyptian Cotton Leaf Worm); experiment: Example B6: Activity against Spodoptera littoralis, sprayed cotton leaf discs on agar; details: foliar, 72 h, application rate 200 ppm, L1 larvae, assessed 3 days after infestation, read-out: control (at least one of mortality, anti-feedant effect, growth inhibition)
Method: Example B6: Activity Against Spodoptera littoralis (Egyptian Cotton Leaf Worm)
Cotton leaf discs were placed onto agar in 24-well microtiter plates and sprayed with aqueous test solutions prepared from 10′000 ppm DMSO stock solutions. After drying the leaf discs were infested with five L1 larvae. The samples were assessed for mortality, anti-feeding effect, and growth inhibition in comparison to untreated samples 3 days after infestation. Control of Spodoptera littoralis by a test sample is given when at least one of the categories mortality, anti-feedant effect, and growth inhibition is higher than the untreated sample.

[4] = tested on: Chilo suppressalis (Striped Rice Stemborer); experiment: Example B1: Activity against Chilo suppressalis, artificial diet in 24-well microtiter plates; details: 144 h, application rate 200 ppm, L2 larvae, assessed 6 days after infestation, read-out: control (at least one of mortality, anti-feedant effect, growth inhibition)
Method: Example B1: Activity Against Chilo suppressalis (Striped Rice Stemborer)
24-well microtiter plates with artificial diet were treated with aqueous test solutions prepared from 10′000 ppm DMSO stock solutions by pipetting. After drying, the plates were infested with L2 larvae (6-8 per well). The samples were assessed for mortality, anti-feeding effect, and growth inhibition in comparison to untreated samples 6 days after infestation. Control of Chilo suppressalis by a test sample is given when at least one of the categories mortality, anti-feedant effect, and growth inhibition is higher than the untreated sample.

[5] = tested on: Plutella xylostella (Diamond Back Moth); experiment: Example B5: Activity against Plutella xylostella, artificial diet in 24-well microtiter plates; details: 192 h, application rate 200 ppm, eggs, assessed 8 days after infestation, read-out: effect in at least one of the two categories (mortality or growth inhibition)
Method: Example B5: Activity Against Plutella xylostella (Diamond Back Moth)
24-well microtiter plates with artificial diet were treated with aqueous test solutions prepared from 10′000 ppm DMSO stock solutions by pipetting. After drying, Plutella eggs were pipetted through a plastic stencil onto a gel blotting paper and the plate was closed with it. The samples were assessed for mortality and growth inhibition in comparison to untreated samples 8 days after infestation.

[6] = tested on: Euschistus heros (Neotropical Brown Stink Bug); experiment: Example B3: Activity against Euschistus heros, sprayed soybean leaves on agar; details: 120 h, application rate 200 ppm, N2 nymphs, assessed 5 days after infestation, read-out: effect in at least one of the two categories (mortality or growth inhibition)
Method: Example B3: Activity Against Euschistus heros (Neotropical Brown Stink Bug)
Soybean leaves on agar in 24-well microtiter plates were sprayed with aqueous test solutions prepared from 10′000 ppm DMSO stock solutions. After drying the leaves were infested with N2 nymphs. The samples were assessed for mortality and growth inhibition in comparison to untreated samples 5 days after infestation.

CCS(=O)(=O)c1c(N2Cc3cc4c(cc3C2=O)OC(F)(F)O4)nc2ccc(C(F)(F)F)cn12 [P1, 6-[3-ethylsulfonyl-6-(trifluoromethyl)imidazo[1,2-a]pyridin-2-yl]-2,2-difluoro-5H-[1,3]dioxolo[4,5-f]isoindol-7-one]
≥ 80%: mortality at 200 ppm [1] | percent effect (mortality or growth inhibition) at 200 ppm [2] | percent control (mortality, anti-feedant effect or growth inhibition) at 200 ppm [3] | control (mortality, anti-feedant effect or growth inhibition) at 200 ppm [4] | percent effect (mortality or growth inhibition) at 200 ppm [5]

CCS(=O)(=O)c1cc2ccccc2nc1N1Cc2cc3c(cc2C1=O)OC(F)(F)O3 [P2, 6-(3-ethylsulfonyl-2-quinolyl)-2,2-difluoro-5H-[1,3]dioxolo[4,5-f]isoindol-7-one]
≥ 80%: mortality at 200 ppm [1] | percent effect (mortality or growth inhibition) at 200 ppm [2] | percent effect (mortality or growth inhibition) at 200 ppm [6] | percent control (mortality, anti-feedant effect or growth inhibition) at 200 ppm [3] | percent effect (mortality or growth inhibition) at 200 ppm [5]

CCS(=O)(=O)c1c(N2Cc3cc4c(cc3C2=O)OC(F)(F)O4)nn2cc(C(F)(F)F)ccc12 [P3, 6-[3-ethylsulfonyl-6-(trifluoromethyl)pyrazolo[1,5-a]pyridin-2-yl]-2,2-difluoro-5H-[1,3]dioxolo[4,5-f]isoindol-7-one]
≥ 80%: mortality at 200 ppm [1] | percent effect (mortality or growth inhibition) at 200 ppm [2] | percent control (mortality, anti-feedant effect or growth inhibition) at 200 ppm [3] | control (mortality, anti-feedant effect or growth inhibition) at 200 ppm [4] | percent effect (mortality or growth inhibition) at 200 ppm [5]

CCS(=O)(=O)c1c(N2Cc3cc4c(cc3C2=O)OC(F)(F)O4)nc2cc(C(F)(F)F)ccn12 [P5, 6-[3-ethylsulfonyl-7-(trifluoromethyl)imidazo[1,2-a]pyridin-2-yl]-2,2-difluoro-5H-[1,3]dioxolo[4,5-f]isoindol-7-one]
≥ 80%: percent effect (mortality or growth inhibition) at 200 ppm [2] | percent control (mortality, anti-feedant effect or growth inhibition) at 200 ppm [3] | control (mortality, anti-feedant effect or growth inhibition) at 200 ppm [4] | percent effect (mortality or growth inhibition) at 200 ppm [5]

CCS(=O)(=O)c1c(N2Cc3cc4c(cc3C2=O)OC(F)(F)O4)nn2ccc(C(F)(F)F)cc12 [P6, 6-[3-ethylsulfonyl-5-(trifluoromethyl)pyrazolo[1,5-a]pyridin-2-yl]-2,2-difluoro-5H-[1,3]dioxolo[4,5-f]isoindol-7-one]
≥ 80%: percent effect (mortality or growth inhibition) at 200 ppm [2] | percent control (mortality, anti-feedant effect or growth inhibition) at 200 ppm [3] | control (mortality, anti-feedant effect or growth inhibition) at 200 ppm [4] | percent effect (mortality or growth inhibition) at 200 ppm [5]

CCS(=O)(=O)c1c(N2Cc3cc4c(cc3C2=O)OC(F)(F)O4)nc2ccc(C(C)(F)F)cn12 [P7, 6-[6-(1,1-difluoroethyl)-3-ethylsulfonyl-imidazo[1,2-a]pyridin-2-yl]-2,2-difluoro-5H-[1,3]dioxolo[4,5-f]isoindol-7-one]
≥ 80%: percent effect (mortality or growth inhibition) at 200 ppm [2] | percent control (mortality, anti-feedant effect or growth inhibition) at 200 ppm [3] | control (mortality, anti-feedant effect or growth inhibition) at 200 ppm [4] | percent effect (mortality or growth inhibition) at 200 ppm [5]

CCS(=O)(=O)c1c(N2Cc3cc4c(cc3C2=O)OC(F)(F)O4)nc2cc(C(C)(F)F)ccn12 [P8, 6-[7-(1,1-difluoroethyl)-3-ethylsulfonyl-imidazo[1,2-a]pyridin-2-yl]-2,2-difluoro-5H-[1,3]dioxolo[4,5-f]isoindol-7-one]
≥ 80%: percent effect (mortality or growth inhibition) at 200 ppm [2] | percent control (mortality, anti-feedant effect or growth inhibition) at 200 ppm [3] | control (mortality, anti-feedant effect or growth inhibition) at 200 ppm [4] | percent effect (mortality or growth inhibition) at 200 ppm [5]

CCS(=O)(=O)c1c(N2Cc3cc4c(cc3C2=O)OC(F)(F)O4)nc2cc(Br)ccn12 [P9, 6-(7-bromo-3-ethylsulfonyl-imidazo[1,2-a]pyridin-2-yl)-2,2-difluoro-5H-[1,3]dioxolo[4,5-f]isoindol-7-one]
≥ 80%: percent effect (mortality or growth inhibition) at 200 ppm [2] | percent control (mortality, anti-feedant effect or growth inhibition) at 200 ppm [3] | control (mortality, anti-feedant effect or growth inhibition) at 200 ppm [4] | percent effect (mortality or growth inhibition) at 200 ppm [5]

CCS(=O)(=O)c1c(N2Cc3cc4c(cc3C2=O)OC(F)(F)O4)nc2ccc(Br)cn12 [P10, 6-(6-bromo-3-ethylsulfonyl-imidazo[1,2-a]pyridin-2-yl)-2,2-difluoro-5H-[1,3]dioxolo[4,5-f]isoindol-7-one]
≥ 80%: control (mortality, anti-feedant effect or growth inhibition) at 200 ppm [4]

CCS(=O)(=O)c1c(N2Cc3cc4c(cc3C2=O)OC(F)(F)O4)nc2ccc(Cl)cn12 [P11, 6-(6-chloro-3-ethylsulfonyl-imidazo[1,2-a]pyridin-2-yl)-2,2-difluoro-5H-[1,3]dioxolo[4,5-f]isoindol-7-one]
≥ 80%: percent effect (mortality or growth inhibition) at 200 ppm [2] | percent effect (mortality or growth inhibition) at 200 ppm [6] | percent control (mortality, anti-feedant effect or growth inhibition) at 200 ppm [3] | control (mortality, anti-feedant effect or growth inhibition) at 200 ppm [4] | percent effect (mortality or growth inhibition) at 200 ppm [5]

CCS(=O)(=O)c1c(N2Cc3cc4c(cc3C2=O)OC(F)(F)O4)nn2cc(Br)ccc12 [P12, 6-(6-bromo-3-ethylsulfonyl-pyrazolo[1,5-a]pyridin-2-yl)-2,2-difluoro-5H-[1,3]dioxolo[4,5-f]isoindol-7-one]
≥ 80%: mortality at 200 ppm [1] | percent effect (mortality or growth inhibition) at 200 ppm [2] | percent control (mortality, anti-feedant effect or growth inhibition) at 200 ppm [3] | control (mortality, anti-feedant effect or growth inhibition) at 200 ppm [4] | percent effect (mortality or growth inhibition) at 200 ppm [5]

CCS(=O)(=O)c1c(N2Cc3cc4c(cc3C2=O)OC(F)(F)O4)nc2cc(Cl)ccn12 [P13, 6-(7-chloro-3-ethylsulfonyl-imidazo[1,2-a]pyridin-2-yl)-2,2-difluoro-5H-[1,3]dioxolo[4,5-f]isoindol-7-one]
≥ 80%: percent effect (mortality or growth inhibition) at 200 ppm [2] | percent control (mortality, anti-feedant effect or growth inhibition) at 200 ppm [3] | control (mortality, anti-feedant effect or growth inhibition) at 200 ppm [4] | percent effect (mortality or growth inhibition) at 200 ppm [5]

CCS(=O)(=O)c1c(N2Cc3cc4c(cc3C2=O)OC(F)(F)O4)nn2cc(Cl)ccc12 [P14, 6-(6-chloro-3-ethylsulfonyl-pyrazolo[1,5-a]pyridin-2-yl)-2,2-difluoro-5H-[1,3]dioxolo[4,5-f]isoindol-7-one]
≥ 80%: mortality at 200 ppm [1] | percent effect (mortality or growth inhibition) at 200 ppm [2] | percent control (mortality, anti-feedant effect or growth inhibition) at 200 ppm [3] | control (mortality, anti-feedant effect or growth inhibition) at 200 ppm [4] | percent effect (mortality or growth inhibition) at 200 ppm [5]

CCS(=O)(=O)c1c(N2Cc3cc4c(cc3C2=O)OC(F)(F)O4)nn2ccc(Cl)cc12 [P15, 6-(5-chloro-3-ethylsulfonyl-pyrazolo[1,5-a]pyridin-2-yl)-2,2-difluoro-5H-[1,3]dioxolo[4,5-f]isoindol-7-one]
≥ 80%: percent effect (mortality or growth inhibition) at 200 ppm [2] | percent effect (mortality or growth inhibition) at 200 ppm [6] | percent control (mortality, anti-feedant effect or growth inhibition) at 200 ppm [3] | control (mortality, anti-feedant effect or growth inhibition) at 200 ppm [4] | percent effect (mortality or growth inhibition) at 200 ppm [5]

CCS(=O)(=O)c1c(N2Cc3cc4c(cc3C2=O)OC(F)(F)O4)nc2cc(I)ccn12 [P16, 6-(3-ethylsulfonyl-7-iodo-imidazo[1,2-a]pyridin-2-yl)-2,2-difluoro-5H-[1,3]dioxolo[4,5-f]isoindol-7-one]
≥ 80%: percent effect (mortality or growth inhibition) at 200 ppm [2] | percent control (mortality, anti-feedant effect or growth inhibition) at 200 ppm [3] | control (mortality, anti-feedant effect or growth inhibition) at 200 ppm [4] | percent effect (mortality or growth inhibition) at 200 ppm [5]

CCS(=O)(=O)c1c(N2Cc3cc4c(cc3C2=O)OC(F)(F)O4)nc2ccc(I)cn12 [P17, 6-(3-ethylsulfonyl-6-iodo-imidazo[1,2-a]pyridin-2-yl)-2,2-difluoro-5H-[1,3]dioxolo[4,5-f]isoindol-7-one]
≥ 80%: percent effect (mortality or growth inhibition) at 200 ppm [2] | percent control (mortality, anti-feedant effect or growth inhibition) at 200 ppm [3] | control (mortality, anti-feedant effect or growth inhibition) at 200 ppm [4] | percent effect (mortality or growth inhibition) at 200 ppm [5]
